We go through two molecules from US9035056B2, “Pyrido[4,3-b]indole and pyrido[3,4-b]indole derivatives and methods of use” (Medivation Technologies, Inc., priority 2011, dated 2015).

Test [1] deals with T1, human recombinant serotonin (5-Hydroxytryptamine) 5-HT5A receptor (Homo sapiens, UniProt P47898).
T1 construct: expressed in transfected cells; host or cells: CHO-K1
Briefly: Serotonin 5-HT5A radioligand binding ([3H]LSD). As to conditions: 0.1 μM compound; read-out: Percentage inhibition of ligand binding, Serotonin 5-HT5A. As to the method: To evaluate in radioligand binding assays the activity of compounds of the invention, human recombinant serotonin (5-Hydroxytryptamine) 5-HT5A receptor expressed in Chinese hamster ovary (CHO) K1 cells (Rees, S. et al, FEBS Lett. 355:242, 1994) in a modified Tris-HCl buffer (50 mM Tris-HCl, pH 7.4, 10 mM MgCl2, 0.5 mM EDTA) was used. Compounds of the invention were incubated with 1.7 nM [^3H]Lysergic acid diethylamide (LSD) for 60 min at 37° C. Non-specific binding was estimated in the presence of 100 μM Serotonin (5-HT). Receptor proteins were filtered and washed, the filters were counted to determine [^3H]LSD specifically bound. Compounds were screened at 1 μM or lower, using 1% DMSO as vehicle. Biochemical assay results are presented as the percent inhibition of specific binding in Table 5.

For test [2], the target named is T2, human recombinant serotonin (5-Hydroxytryptamine) 5-HT2A receptor (Homo sapiens, UniProt P28223).
T2 construct: expressed in transfected cells; host or cells: CHO-K1
T2 sequence (P28223 whole entry): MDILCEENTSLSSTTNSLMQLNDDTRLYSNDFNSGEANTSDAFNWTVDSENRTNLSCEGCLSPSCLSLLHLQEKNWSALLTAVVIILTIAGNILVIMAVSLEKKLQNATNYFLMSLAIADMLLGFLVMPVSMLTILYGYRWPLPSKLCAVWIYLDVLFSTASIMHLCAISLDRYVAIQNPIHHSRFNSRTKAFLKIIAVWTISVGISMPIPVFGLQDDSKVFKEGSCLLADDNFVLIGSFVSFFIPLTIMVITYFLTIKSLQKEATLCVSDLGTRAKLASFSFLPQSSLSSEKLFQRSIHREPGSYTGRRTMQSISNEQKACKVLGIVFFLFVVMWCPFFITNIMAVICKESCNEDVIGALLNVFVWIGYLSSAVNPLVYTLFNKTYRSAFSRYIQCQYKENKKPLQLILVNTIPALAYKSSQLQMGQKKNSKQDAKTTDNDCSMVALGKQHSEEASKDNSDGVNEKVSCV
The test can be described thus: Serotonin 5-HT2A radioligand binding ([3H]Ketanserin). As to conditions: 0.1 μM compound; read-out: Percentage inhibition of ligand binding, Serotonin 5-HT2A. As to the method:
To evaluate in radioligand binding assays the activity of compounds of the invention, human recombinant serotonin (5-Hydroxytryptamine) 5-HT2A receptor expressed in Chinese hamster ovary (CHO) K1 cells (Bonhaus, D. et al, Br. J. Pharmacol. 115:622, 1995; Saucier, C. et al, J. Neurochem. 68:1998, 1997) in a 50 mM Tris-HCl buffer, pH 7.4, was used. Compounds of the invention were incubated with 0.5 nM [^3H]Ketanserin for 60 min at 25° C. Non-specific binding was estimated in the presence of 1 μM Mianserin. Receptor proteins were filtered and washed, the filters were then counted to determine [^3H]Ketanserin specifically bound. Compounds were screened at 1 μM or lower, using 1% DMSO as vehicle. Biochemical assay results are presented as the percent inhibition of specific binding in Table 5.

Test [3] addresses T3, human recombinant dopamine D2L receptor (Homo sapiens, UniProt P14416).
T3 construct: expressed in transfected cells; host or cells: CHO
Briefly: Dopamine D2L radioligand binding ([3H]Spiperone). As to conditions: 1 μM compound; read-out: Percentage inhibition of ligand binding, Dopamine D2L. Here is the method:
To evaluate in radioligand binding assays the activity of compounds of the invention, human recombinant dopamine D2L receptor expressed in Chinese hamster ovary (CHO) cells (Grandy, D. et al, Proc. Natl. Acad. Sci. USA. 86:9762, 1989; Hayes, G. et al, Mol. Endocrinol. 6:920, 1992) in a modified Tris-HCl buffer (50 mM Tris-HCl, pH 7.4, 1.4 mM Ascorbic Acid, 0.001% BSA, 150 mM NaCl) was used. Compounds of the invention were incubated with 0.16 nM [^3H]Spiperone for 120 min at 25° C. Non-specific binding was estimated in the presence of 10 μM Haloperidol. Receptor proteins were filtered and washed, the filters were then counted to determine [^3H]Spiperone specifically bound. Compounds were screened at 1 μM or lower, using 1% DMSO as vehicle. Biochemical assay results are presented as the percent inhibition of specific binding in Table 4.

The target of test [4] is T4, rat adrenergic α1A receptor (Rattus norvegicus, UniProt P43140).
T4 construct: rat adrenergic α1A receptor obtained from Wistar Rat submaxillary glands; from tissue; host or cells: Wistar rat submaxillary glands
T4 sequence (P43140 1-466): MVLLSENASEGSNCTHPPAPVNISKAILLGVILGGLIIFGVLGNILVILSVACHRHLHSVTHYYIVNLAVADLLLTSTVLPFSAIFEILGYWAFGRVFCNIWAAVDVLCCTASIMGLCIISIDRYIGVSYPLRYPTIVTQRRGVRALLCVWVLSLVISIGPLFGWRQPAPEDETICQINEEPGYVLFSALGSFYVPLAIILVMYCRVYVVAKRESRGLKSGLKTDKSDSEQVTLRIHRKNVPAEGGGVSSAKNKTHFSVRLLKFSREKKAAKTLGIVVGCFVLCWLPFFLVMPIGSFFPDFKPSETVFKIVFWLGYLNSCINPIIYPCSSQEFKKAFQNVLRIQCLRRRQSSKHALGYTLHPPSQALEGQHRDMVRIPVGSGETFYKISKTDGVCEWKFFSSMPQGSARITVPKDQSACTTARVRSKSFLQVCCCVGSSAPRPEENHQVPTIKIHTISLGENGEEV
The test can be described thus: Adrenergic α1A radioligand binding ([3H]Prazosin). As to conditions: 0.1 μM compound; read-out: Percentage inhibition of ligand binding, Adrenergic α1A. As to the method:
To evaluate in radioligand binding assays the activity of compounds of the invention, rat adrenergic α1A receptor obtained from Wistar Rat submaxillary glands (Michel, A. et al, Br. J. Pharmacol. 98:883, 1989) in a modified Tris-HCl buffer (50 mM Tris-HCl buffer, pH 7.4, 0.5 mM EDTA) was used. Compounds of the invention were incubated with 0.25 nM [^3H]Prazosin for 60 min at 25° C. Non-specific binding was estimated in the presence of 10 μM phentolamine. Receptor proteins were filtered and washed, the filters were then counted to determine [^3H]Prazosin specifically bound. Compounds of the invention were screened at 1 μM or lower, using 1% DMSO as vehicle. Biochemical assay results are presented as the percent inhibition of specific binding in Table 3.

T3 sequence (P14416 whole entry): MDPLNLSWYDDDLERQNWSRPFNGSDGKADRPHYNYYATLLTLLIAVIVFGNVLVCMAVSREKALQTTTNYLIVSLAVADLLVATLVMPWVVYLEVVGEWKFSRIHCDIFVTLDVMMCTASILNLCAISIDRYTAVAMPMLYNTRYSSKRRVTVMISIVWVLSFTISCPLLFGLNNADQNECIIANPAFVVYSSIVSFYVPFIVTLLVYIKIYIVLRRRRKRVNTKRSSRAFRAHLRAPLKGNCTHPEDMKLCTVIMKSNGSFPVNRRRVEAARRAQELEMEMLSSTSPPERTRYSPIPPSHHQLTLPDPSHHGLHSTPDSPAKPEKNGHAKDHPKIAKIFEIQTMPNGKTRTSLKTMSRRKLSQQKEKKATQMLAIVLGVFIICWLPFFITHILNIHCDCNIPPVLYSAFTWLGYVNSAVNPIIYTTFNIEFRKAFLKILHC
T1 sequence (P47898 whole entry): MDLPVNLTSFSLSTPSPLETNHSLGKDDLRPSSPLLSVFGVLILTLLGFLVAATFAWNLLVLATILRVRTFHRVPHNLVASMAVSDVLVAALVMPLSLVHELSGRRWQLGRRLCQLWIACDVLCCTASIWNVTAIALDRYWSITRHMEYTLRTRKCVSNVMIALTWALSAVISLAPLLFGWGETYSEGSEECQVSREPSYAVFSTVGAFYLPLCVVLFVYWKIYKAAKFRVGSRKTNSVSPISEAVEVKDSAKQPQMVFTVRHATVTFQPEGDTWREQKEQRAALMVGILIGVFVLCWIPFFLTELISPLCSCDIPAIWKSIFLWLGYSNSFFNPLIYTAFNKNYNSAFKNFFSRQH

Consider `Cc1ccc2c(c1)c1c(n2/C=C2\CCCc3ccccc32)CCN(C)C1` [i-3], for which the inhibition at 0.1 µM in test [1] amounted to 91%; in test [2], 100%; in test [4], 18%. In addition, the inhibition at 1 µM in test [3] was determined as 49%.
For `Cc1ccc2c(c1)c1c(n2/C=C2/CCCc3ccccc32)CCN(C)C1` [i-2] the same measures were 101%, 99%, 51% and 47%.

Usually inhibition stands for the drop in the measured response relative to a control, in per cent.
